Like-named read-outs stand apart in the source and are kept apart here.
Tested on: α7 integrin (LacZ reporter in α7LacZ+/− myoblasts)
Assay: qHTS of the LOPAC library and MLSMR (online screen, α7LacZ+/− myoblasts)
Details: for activation at 0.307 µM / activation at 1.53 µM / activation at 7.66 µM / activation at 38.3 µM / Emax / EC50: Mus musculus, Myoblast; for activation at 0.307 µM: read-out: Activity at 0.307 uM [%] **; for activation at 1.53 µM: read-out: Activity at 1.530 uM [%] **; for activation at 7.66 µM: read-out: Activity at 7.660 uM [%] **; for activation at 38.3 µM: read-out: Activity at 38.30uM [%] **; for EC50: read-out: Fit LogAC50 (converted); for Score: Table 8 Compound data
[1] = 48 h, read-out: Fit Infinite Activity [%]

Row | SMILES | activation at 0.307 µM (48 h) | activation at 1.53 µM (48 h) | activation at 7.66 µM (48 h) | activation at 38.3 µM (48 h) | Emax [1] | EC50 | Emax (read-out: Max Response [%]) | Score
1 | Cc1ccc(C2=C(CC(=O)O)C(=O)CC2)cc1 [Compound 86] | 10.4% | 28.9% | 57.4% | 80.4% | 94.7% | 4.47 µM | 80.4% | 
2 | CN(C)c1ccnc2sc(C(N)=O)c(N)c12 [Compound 87] | 20.9% | 26.5% | 69.1% | 86.5% | 87.8% |  | 86.5% | 
3 | C[C@H]1CNC(=O)c2c(C(=O)Nc3ccc(CNC(=O)OC(C)(C)C)cc3)ncn21 [Compound 88] | 12.6% | 21.8% | 50.5% | 81.8% | 98.4% | 8.91 µM | 81.8% | 
4 | CCCN(C(=O)c1ccc(S(=O)(=O)N2CCCC2)cc1)C1CCS(=O)(=O)C1 (stereo not drawn) [Compound 89] | -9.99% | -0.297% | 45.6% | 74.1% | 75.3% | 5.01 µM | 74.1% | 
5 | CN(CC(=O)Nc1cccc(F)c1)C(=O)c1ccc(-c2ccc(Cl)cc2)o1 [Compound 90] | 2.83% | 8.12% | 27.2% | 146% | 146% | 11.2 µM | 146% | 
6 | Cc1ccc(S(=O)(=O)N2CN(CC3CCCO3)c3nc4ccccc4nc32)c(C)c1 (stereo not drawn) [Compound 91] | -19.2% | -13.3% | 6.57% | 121% | 122% | 11.2 µM | 121% | 43
7 | COc1ccc(C(=O)N/C(=C/c2cccnc2)C(=O)N2CCN(C)CC2)cc1OC [Compound 92] | 2.57% | 13.3% | 54.9% | 75% | 77% | 4.47 µM | 75% | 
8 | COc1cccc(C(=O)NCC(=O)N2CCC3(CC2)NCCc2[nH]cnc23)c1 [Compound 93] | -3.47% | 0% | 36.3% | 102% | 114% | 11.2 µM | 102% | 
9 | COc1ccc(-c2csc3ncnc(N4CCN(c5ccccc5[N+](=O)[O-])CC4)c23)cc1 [Compound 94] | 11.5% | 8.66% | 36.5% | 138% | 138% | 10 µM | 138% | 43
10 | O=C(COc1cc2oc(=O)c3c(c2cc1Cl)CCCC3)NC[C@H]1CC[C@H](C(=O)O)CC1 [Compound 95] | -12.4% | 3.06% | 36.2% | 67.9% | 83.4% | 7.08 µM | 67.9% | 
11 | COCCn1c(=N)c(S(=O)(=O)c2ccc(Br)cc2)cc2c(=O)n3ccccc3nc21 [Compound 96] | -7.89% | 1.1% | 54.5% | 73.2% | 75% | 4.47 µM | 73.2% | 
12 | CN(Cc1c(C(=O)N/N=C/c2cccc(F)c2)nnn1-c1nonc1N)c1ccccc1 [Compound 97] | 1.91% | 1.37% | 59.1% | 79.3% | 79.8% | 5.62 µM | 79.3% | 
13 | COc1ccc(N(CC(=O)NCCC(C)C)C(=O)c2snc(C(=O)NC3CCCCC3)c2N)c(OC)c1 [Compound 98] | -0.0399% | 0.105% | 28.9% | 125% | 126% | 10 µM | 125% | 
14 | CC1(C)CC(O)=C/C(=N\c2ccc(C(=O)O)c(O)c2)C1 [Compound 99] | 0.744% | 1.73% | 44.4% | 114% | 121% | 10 µM | 114% | 
15 | COC(=O)c1ccccc1NC(=O)c1cc[n+]([O-])cc1 [Compound 100] | -24.5% | -4.99% | 30.1% | 56.3% | 64% | 3.98 µM | 56.3% | 
16 | CN(C)C1(C/N=C/c2cc(Cl)cc([N+](=O)[O-])c2O)CCCCC1 [Compound 101] | -14.2% | -11.6% | 43.3% | 104% | 116% | 8.91 µM | 104% | 43
17 | CS(=O)(=O)Cc1cccc(C(=O)NN(c2ccccc2)c2ccccc2)c1 [Compound 102] | 10.3% | 11.3% | 24.3% | 159% | 160% | 12.6 µM | 159% | 

Row | SMILES | activation at 0.307 µM (48 h) | activation at 1.53 µM (48 h) | activation at 7.66 µM (48 h) | activation at 38.3 µM (48 h) | Emax [1] | EC50 | Emax (read-out: Max Response [%]) | Score
18 | COc1ccccc1CNS(=O)(=O)c1ccc(Cl)s1 [Compound 103] | -22% | -16.4% | 50.2% | 91.3% | 96.9% | 6.31 µM | 91.3% | 
19 | O=C(NCCc1ccccc1)C1CCC(=O)N1C1CCCC1 (stereo not drawn) [Compound 104] | -6.49% | -11.7% | 27.3% | 127% | 128% | 10 µM | 127% | 
20 | NS(=O)(=O)c1ccc(NC(=O)c2cc(-c3ccccc3O)[nH]n2)cc1 [Compound 105] | 15.4% | 17.9% | 44.2% | 112% | 113% | 10 µM | 112% | 
21 | COc1ccc(-c2c[nH]nc2-c2ccc(OC)cc2)cc1 [Compound 106] | -0.495% | 9.02% | 40.4% | 70.1% | 79.2% |  | 70.1% | 
22 | Fc1ccc(-c2ccnn2-c2ccccc2)cc1 [Compound 107] | -17.2% | -3.24% | 46% | 73.3% | 76.4% | 4.47 µM | 73.3% | 
23 | O=C(Nc1cc(Br)ccc1O)C1CC(c2ccccc2Cl)=NO1 (stereo not drawn) [Compound 108] | 2.03% | 3.14% | 15.3% | 141% | 142% | 12.6 µM | 141% | 
24 | COc1ccc2oc(C[S+]([O-])c3ccccc3)c(C(=O)O)c2c1 (stereo not drawn) [Compound 109] | 5.2% | 10.1% | 20.9% | 174% | 174% | 12.6 µM | 174% | 
25 | Oc1c(Br)cc(Br)cc1CNc1cccc2cccnc12 [Compound 110] | -18.9% | -17.9% | 0% | 161% | 163% | 12.6 µM | 161% | 43
26 | CCCCS(=O)(=O)N1CCCC(C(=O)NCCc2ccccc2)C1 (stereo not drawn) [Compound 111] | 4.12% | 15.4% | 54.6% | 89.9% | 101% | 7.08 µM | 89.9% | 
27 | O=[N+]([O-])c1ccc(Cl)cc1N/N=C/c1ccncc1 [Compound 112] | 0% | 1.53% | 54% | 73.8% | 74% | 5.62 µM | 73.8% | 43
28 | NC(=O)c1cccnc1Oc1ccc(Cl)cc1Cl [Compound 113] | -4.94% | -7.73% | 23.5% | 105% | 106% | 10 µM | 105% | 
29 | Cc1ccc(NC(=O)C2CCCCC2C(=O)O)cc1C (stereo not drawn) [Compound 114] | -6.72% | -1.25% | 17.2% | 135% | 135% | 11.2 µM | 135% | 
30 | CCOc1ccc2oc(C(=O)OCC(=O)NC(=O)NC)c(C)c2c1 [Compound 115] | -3.94% | 0% | 40.2% | 77.6% | 80.7% | 7.08 µM | 77.6% | 
31 | CN(C)S(=O)(=O)c1ccc(C(=O)Nc2nc3ccccc3[nH]2)cc1 [Compound 116] | -9.1% | -3.94% | 36.7% | 84.9% | 94.8% | 8.91 µM | 84.9% | 
32 | NC1=Nc2cccc3cccc1c23 [Compound 117] | 0% | 5.07% | 43.6% | 82.2% | 88.8% | 7.94 µM | 82.2% | 
33 | C/N=c1\scc(-c2ccc(OC)cc2)n1/N=C(\C)c1cccnc1 [Compound 118] | -8.12% | 2.29% | 48.7% | 73.6% | 74.9% | 5.01 µM | 73.6% | 

Source: US9980943B2, “Methods of treating muscular dystrophy” (BOARD OF REGENTS OF THE NEVADA SYSTEM OF HIGHER EDUCATION, …, priority 2013, dated 2018)
